Measurements: patent US6914045B2, “Glycopeptide antibiotics” (Wyeth Holdings Corporation, priority 2001, dated 2005)
In brackets after ≈: the same amount, converted by molar mass.

Key:
Experiment in all cases: in vitro antibacterial evaluation, MIC by broth dilution
Assay type in all cases: cell-based
Enterococcus sp. = details: broth dilution, 18 hours at 35° C.
Outline: (§1)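 Inoculum 5×10^5 CFU/mL; concentrations 64 to 0.06 μg/mL; MIC defined as lowest inhibitory level. Conducted by broth dilution under NCCLS guidelines.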

Streptococcus sp. = details: broth dilution, 18 hours at 35° C.
Outline: as §1

Staphylococcus sp. = details: broth dilution, 18 hours at 35° C.; for MIC Staphylococcus aureus (GC 1131): strain GC 1131
Outline: as §1

Escherichia coli = details: 18 hours at 35° C.

MIC Enterococcus avium (GC 4558) (Enterococcus sp.): 16 µg/mL (≈ 9.9 µM)
MIC Enterococcus faecalis (ATCC 29212) (Enterococcus sp.): >64 µg/mL
MIC Enterococcus faecalis (GC 2242) (Enterococcus sp.): >64 µg/mL
MIC Enterococcus faecalis (GC 2691) (Enterococcus sp.): >64 µg/mL
MIC Enterococcus faecalis (GC 3059) (Enterococcus sp.): >64 µg/mL
MIC Enterococcus faecalis (GC 4552) (Enterococcus sp.): >64 µg/mL
MIC Enterococcus faecalis (GC 4553) (Enterococcus sp.): 64 µg/mL (≈ 39.6 µM)
MIC Enterococcus faecalis (GC 4554) (Enterococcus sp.): >64 µg/mL
MIC Enterococcus faecalis (GC 6189) (Enterococcus sp.): 64 µg/mL (≈ 39.6 µM)
MIC Enterococcus faecium (GC 2243) (Enterococcus sp.): 64 µg/mL (≈ 39.6 µM)
MIC Enterococcus faecium (GC 4556) (Enterococcus sp.): >64 µg/mL
MIC Enterococcus faecium (GC 4557) (Enterococcus sp.): 8 µg/mL (≈ 4.95 µM)
MIC Enterococcus faecalis (ATCC 29212) (Enterococcus sp.; inoculum 5×10^5 CFU/mL, strain ATCC 29212): >64 µg/mL
MIC Enterococcus faecalis (GC 2242) (Enterococcus sp.; inoculum 5×10^5 CFU/mL, strain GC 2242): >64 µg/mL
MIC Enterococcus faecium (GC 2243) (Enterococcus sp.; inoculum 5×10^5 CFU/mL, strain GC 2243): 64 µg/mL (≈ 39.6 µM)
MIC Enterococcus faecalis (GC 2691) (Enterococcus sp.; inoculum 5×10^5 CFU/mL, strain GC 2691): >64 µg/mL
MIC Enterococcus faecalis (GC 3059) (Enterococcus sp.; inoculum 5×10^5 CFU/mL, strain GC 3059): >64 µg/mL
MIC Enterococcus faecalis (GC 4552) (Enterococcus sp.; inoculum 5×10^5 CFU/mL, strain GC 4552): >64 µg/mL
MIC Enterococcus faecalis (GC 4553) (Enterococcus sp.; inoculum 5×10^5 CFU/mL, strain GC 4553): 64 µg/mL (≈ 39.6 µM)
MIC Enterococcus faecalis (GC 4554) (Enterococcus sp.; inoculum 5×10^5 CFU/mL, strain GC 4554): >64 µg/mL
MIC Enterococcus faecium (GC 4556) (Enterococcus sp.; inoculum 5×10^5 CFU/mL, strain GC 4556): >64 µg/mL
MIC Enterococcus faecium (GC 4557) (Enterococcus sp.; inoculum 5×10^5 CFU/mL, strain GC 4557): 8 µg/mL (≈ 4.95 µM)
MIC Enterococcus avium (GC 4558) (Enterococcus sp.; inoculum 5×10^5 CFU/mL, strain GC 4558): 16 µg/mL (≈ 9.9 µM)
MIC Enterococcus faecalis (GC 6189) (Enterococcus sp.; inoculum 5×10^5 CFU/mL, strain GC 6189): 64 µg/mL (≈ 39.6 µM)
MIC Streptococcus agalactiae (GC 4564) (Streptococcus sp.): 16 µg/mL (≈ 9.9 µM)
MIC Streptococcus pneumoniae (ATCC 6301) (Streptococcus sp.): 4 µg/mL (≈ 2.48 µM)
MIC Streptococcus pneumoniae (GC 1894) (Streptococcus sp.): 8 µg/mL (≈ 4.95 µM)
MIC Streptococcus pneumoniae (GC 4565) (Streptococcus sp.): 8 µg/mL (≈ 4.95 µM)
MIC Streptococcus pyogenes (GC 4563) (Streptococcus sp.): 16 µg/mL (≈ 9.9 µM)
MIC Streptococcus pneumoniae (ATCC 6301) (Streptococcus sp.; inoculum 5×10^5 CFU/mL, strain ATCC 6301): 4 µg/mL (≈ 2.48 µM)
MIC Streptococcus pneumoniae (GC 1894) (Streptococcus sp.; inoculum 5×10^5 CFU/mL, strain GC 1894): 8 µg/mL (≈ 4.95 µM)
MIC Streptococcus pyogenes (GC 4563) (Streptococcus sp.; inoculum 5×10^5 CFU/mL, strain GC 4563): 16 µg/mL (≈ 9.9 µM)
MIC Streptococcus agalactiae (GC 4564) (Streptococcus sp.; inoculum 5×10^5 CFU/mL, strain GC 4564): 16 µg/mL (≈ 9.9 µM)
MIC Streptococcus pneumoniae (GC 4565) (Streptococcus sp.; inoculum 5×10^5 CFU/mL, strain GC 4565): 8 µg/mL (≈ 4.95 µM)
MIC Staphylococcus aureus (GC 1131) (Staphylococcus sp.; inoculum 5×10^5 CFU/mL): 16 µg/mL (≈ 9.9 µM)
MIC Staphylococcus aureus (ATCC 29213) (Staphylococcus sp.; strain ATCC 29213): 32 µg/mL (≈ 19.8 µM)
MIC Staphylococcus aureus (GC 1131) (Staphylococcus sp.): 16 µg/mL (≈ 9.9 µM)
MIC Staphylococcus aureus (GC 3051) (Staphylococcus sp.; strain GC 3051): 64 µg/mL (≈ 39.6 µM)
MIC Staphylococcus aureus (GC 3053) (Staphylococcus sp.; strain GC 3053): 64 µg/mL (≈ 39.6 µM)
MIC Staphylococcus aureus (GC 4541) (Staphylococcus sp.; strain GC 4541): 16 µg/mL (≈ 9.9 µM)
MIC Staphylococcus aureus (GC 4542) (Staphylococcus sp.; strain GC 4542): 64 µg/mL (≈ 39.6 µM)
MIC Staphylococcus aureus-SMITH (GC 4543) (Staphylococcus sp.; strain GC 4543): 16 µg/mL (≈ 9.9 µM)
MIC Staphylococcus aureus (GC 4544) (Staphylococcus sp.; strain GC 4544): 32 µg/mL (≈ 19.8 µM)
MIC Staphylococcus aureus (GC 4545) (Staphylococcus sp.; strain GC 4545): 32 µg/mL (≈ 19.8 µM)
MIC Coagulase Negative Staphylococcus (GC 4547) (Staphylococcus sp.; strain GC 4547): 32 µg/mL (≈ 19.8 µM)
MIC Coagulase Negative Staphylococcus (GC 4548) (Staphylococcus sp.; strain GC 4548): 8 µg/mL (≈ 4.95 µM)
MIC Coagulase Negative Staphylococcus (GC 4549) (Staphylococcus sp.; strain GC 4549): 8 µg/mL (≈ 4.95 µM)
MIC Coagulase Negative Staphylococcus (GC 4551) (Staphylococcus sp.; strain GC 4551): 16 µg/mL (≈ 9.9 µM)
MIC Coagulase Negative Staphylococcus (GC 6257) (Staphylococcus sp.; strain GC 6257): 4 µg/mL (≈ 2.48 µM)
MIC Escherichia coli (ATCC 25922) (Escherichia coli): 32 µg/mL (≈ 19.8 µM)
MIC Escherichia coli (GC 4559) (Escherichia coli): 64 µg/mL (≈ 39.6 µM)
MIC Escherichia coli (GC 4560) (Escherichia coli): 16 µg/mL (≈ 9.9 µM)
SMILES: Cc1ccc(Oc2cccc(C3OCC4OC(OC5C(CO)OC(Oc6ccc(CC7NC(=O)C(C(C)c8ccccc8)NC(=O)CNC(=O)C(CO)NC(=O)C(C(O)C8CNC(=N)N8C8OC(CO)C(O)C(O)C8O)NC(=O)C(C(O)C8CNC(=N)N8)NC7=O)cc6I)C(O)C5O)C(O)C(O)C4O3)c2)cc1 (centres unmarked) [Example 197]
MIC Staphylococcus haemolyticus (GC 4546) (Staphylococcus sp.; strain GC 4546): 32 µg/mL (≈ 19.8 µM)
